Results as given in PubChem BioAssay AID330 (DTP/NCI, 2004).
Values joined by “and” are separate entries in the source; they are usually repeats but may differ in a detail not shown here. Identical values can stand only once. Toxic doses and inconclusive results are not listed.

System: P388 leukemia ip, CD2F1 mice, survival T/C
Assay: NCI In Vivo Anticancer Drug Screen. Data for tumor model P388 Leukemia (intraperitoneal) in CD2F1 (CDF1) mice
Conditions: endpoint: median survival time, higher = longer survival
Method in brief: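 Mice carrying the transplanted tumor received test compound or vehicle. Survival was recorded in each group, and the value is the treated-group measurement divided by that of the vehicle-treated control group.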

[1] = dose: 50.0 mg/kg/injection, schedule: Q01DX005 (ip), vehicle: saline with Tween-80
[2] = dose: 100.0 mg/kg/injection, schedule: Q01DX005 (ip), vehicle: saline with Tween-80
[3] = dose: 200.0 mg/kg/injection, schedule: Q01DX005 (ip), vehicle: saline with Tween-80
[4] = dose: 60.0 mg/kg/injection, schedule: Q01DX005 (ip), vehicle: saline with Tween-80
[5] = dose: 60.0 mg/kg/injection, schedule: Q01DX005 (ip), vehicle: saline
[6] = dose: 120.0 mg/kg/injection, schedule: Q01DX005 (ip), vehicle: saline
[7] = dose: 240.0 mg/kg/injection, schedule: Q01DX005 (ip), vehicle: saline
[8] = dose: 12.5 mg/kg/injection, schedule: Q01DX009 (ip), vehicle: Klucel (hydroxypropylcellulose) (HPC)
[9] = dose: 25.0 mg/kg/injection, schedule: Q01DX009 (ip), vehicle: Klucel (hydroxypropylcellulose) (HPC)
[10] = dose: 50.0 mg/kg/injection, schedule: Q01DX009 (ip), vehicle: Klucel (hydroxypropylcellulose) (HPC)
[11] = dose: 50.0 mg/kg/injection, schedule: Q01DX009 (ip), vehicle: saline with Tween-80
[12] = dose: 100.0 mg/kg/injection, schedule: Q01DX009 (ip), vehicle: saline with Tween-80
[13] = dose: 100.0 mg/kg/injection, schedule: Q04DX003 (ip), vehicle: Klucel (hydroxypropylcellulose) (HPC)
[14] = dose: 200.0 mg/kg/injection, schedule: Q04DX003 (ip), vehicle: Klucel (hydroxypropylcellulose) (HPC)
[15] = dose: 50.0 mg/kg/injection, schedule: Q01DX005 (ip), vehicle: saline
[16] = dose: 100.0 mg/kg/injection, schedule: Q01DX005 (ip), vehicle: saline
[17] = dose: 200.0 mg/kg/injection, schedule: Q01DX009 (ip), vehicle: saline with Tween-80

O=C(CCl)NC(Cc1ccc(N(CCCl)CCCl)cc1)C(=O)O (configuration not stated)
T/C (dose: 0.25 mg/kg/injection, schedule: Q01DX009 (ip), vehicle: Klucel (hydroxypropylcellulose) (HPC)): 113 % of control and 96 % of control | T/C (dose: 0.5 mg/kg/injection, schedule: Q01DX009 (ip), vehicle: Klucel (hydroxypropylcellulose) (HPC)): 109 % of control and 115 % of control | T/C (dose: 1.0 mg/kg/injection, schedule: Q01DX009 (ip), vehicle: Klucel (hydroxypropylcellulose) (HPC)): 102 % of control and 115 % of control | T/C (dose: 2.0 mg/kg/injection, schedule: Q01DX001 (ip), vehicle: Klucel (hydroxypropylcellulose) (HPC)): 107 % of control | T/C (dose: 4.0 mg/kg/injection, schedule: Q01DX001 (ip), vehicle: Klucel (hydroxypropylcellulose) (HPC)): 108 % of control | T/C (dose: 8.0 mg/kg/injection, schedule: Q01DX001 (ip), vehicle: Klucel (hydroxypropylcellulose) (HPC)): 119 % of control | T/C (dose: 128.0 mg/kg/injection, schedule: Q01DX009 (ip), vehicle: Klucel (hydroxypropylcellulose) (HPC)): 166 % of control | T/C (dose: 256.0 mg/kg/injection, schedule: Q01DX009 (ip), vehicle: Klucel (hydroxypropylcellulose) (HPC)): 223 % of control

[N-]=[N+]=NC12CC3CC4C5CC(CC41)CC2[C@H]5C3
T/C [1]: 97 % of control | T/C [2]: 99 % of control | T/C [3]: 100 % of control

CCN(C)C12CN3CN(CN(C3)C1)C2
T/C (dose: 100.0 mg/kg/injection, schedule: Q01DX001 (ip), vehicle: saline): 101 % of control | T/C (dose: 200.0 mg/kg/injection, schedule: Q01DX001 (ip), vehicle: saline): 110 % of control | T/C (dose: 400.0 mg/kg/injection, schedule: Q01DX001 (ip), vehicle: saline): 102 % of control

O=C1c2ccc(=O)[nH]c2C(=O)C2CC3=C(CCCC3)CC12 (configuration not stated)
T/C [1]: 109 % of control | T/C [2]: 97 % of control | T/C [3]: 94 % of control

CCOC(=O)C(C#N)C(=N)C1CC(C)(C)OC1=O (configuration not stated)
T/C [4]: 100 % of control | T/C (dose: 120.0 mg/kg/injection, schedule: Q01DX005 (ip), vehicle: saline with Tween-80): 103 % of control | T/C (dose: 240.0 mg/kg/injection, schedule: Q01DX005 (ip), vehicle: saline with Tween-80): 94 % of control

O=C(O)C(=O)O.[NH-]CCC[NH-].[Pt+2]
T/C (dose: 0.63 mg/kg/injection, schedule: Q04DX003 (ip), vehicle: other): 88 % of control | T/C (dose: 2.5 mg/kg/injection, schedule: Q04DX003 (ip), vehicle: other): 153 % of control | T/C (dose: 5.0 mg/kg/injection, schedule: Q04DX003 (ip), vehicle: other): 160 % of control | T/C (dose: 6.25 mg/kg/injection, schedule: Q04DX002 (ip), vehicle: saline): 158 % of control | T/C (dose: 12.5 mg/kg/injection, schedule: Q04DX002 (ip), vehicle: saline): 203 % of control

COc1cc(/C=N/N2CN(C(C)C(=O)O)B(Nc3ncccn3)N=C2N)cc(OC)c1 (configuration not stated)
T/C [5]: 103 % of control | T/C [6]: 111 % of control | T/C [7]: 112 % of control

COc1c2ccoc2nc2c(OC)c3c(cc12)OCO3
T/C (dose: 6.25 mg/kg/injection, schedule: Q01DX009 (ip), vehicle: Klucel (hydroxypropylcellulose) (HPC)): 105 % of control | T/C [8]: 99 % of control | T/C [9]: 94 % of control | T/C [10]: 94 % of control

O=S(=O)(O)c1ccc(-c2c3nc(c(-c4ccc(S(=O)(=O)O)cc4)c4ccc([nH]4)c(-c4ccc(S(=O)(=O)O)cc4)c4nc(c(-c5ccc(S(=O)(=O)O)cc5)c5ccc2[nH]5)C=C4)C=C3)cc1
T/C (dose: 1.56 mg/kg/injection, schedule: Q01DX009 (ip), vehicle: distilled water + Tween-80): 97 % of control | T/C (dose: 3.13 mg/kg/injection, schedule: Q01DX009 (ip), vehicle: distilled water + Tween-80): 100 % of control | T/C (dose: 6.25 mg/kg/injection, schedule: Q01DX009 (ip), vehicle: distilled water + Tween-80): 100 % of control | T/C (dose: 12.5 mg/kg/injection, schedule: Q01DX009 (ip), vehicle: distilled water + Tween-80): 102 % of control and 109 % of control

NC(=S)N/N=C/c1c(Br)nc2sccn12
T/C (dose: 100.0 mg/kg/injection, schedule: Q01DX001 (ip), vehicle: Klucel (hydroxypropylcellulose) (HPC)): 97 % of control | T/C (dose: 200.0 mg/kg/injection, schedule: Q01DX001 (ip), vehicle: Klucel (hydroxypropylcellulose) (HPC)): 89 % of control | T/C (dose: 400.0 mg/kg/injection, schedule: Q01DX001 (ip), vehicle: Klucel (hydroxypropylcellulose) (HPC)): 89 % of control

NNC(=O)C1CCN1C(c1ccccc1)c1ccccc1 (configuration not stated)
T/C [8]: 106 % of control | T/C [9]: 102 % of control | T/C [10]: 102 % of control | T/C (dose: 100.0 mg/kg/injection, schedule: Q01DX009 (ip), vehicle: Klucel (hydroxypropylcellulose) (HPC)): 95 % of control

O=C(O)CC(SCP(=O)(O)O)C(=O)O (configuration not stated)
T/C (dose: 30.0 mg/kg/injection, schedule: Q01DX005 (ip), vehicle: saline): 98 % of control | T/C [5]: 91 % of control | T/C [6]: 89 % of control | T/C [7]: 93 % of control and 97 % of control

CCn1c2ccccc2c2ccc(N=Nc3ccc(N(C)C)cc3)cc21
T/C [11]: 111 % of control and 112 % of control and 113 % of control | T/C [12]: 108 % of control and 118 % of control

CNC(=O)OCc1c(COC(=O)NC)c(-c2ccc(Br)cc2)n(C)c1C
T/C (dose: 20.0 mg/kg/injection, schedule: Q01DX009 (ip), vehicle: distilled water + Tween-80): 155 % of control

Nc1nc2[nH]c(=O)c(=O)[nH]c2c(=O)[nH]1
T/C (dose: 50.0 mg/kg/injection, schedule: Q04DX003 (ip), vehicle: Klucel (hydroxypropylcellulose) (HPC)): 96 % of control | T/C [13]: 97 % of control | T/C [14]: 94 % of control | T/C (dose: 400.0 mg/kg/injection, schedule: Q04DX003 (ip), vehicle: Klucel (hydroxypropylcellulose) (HPC)): 105 % of control

CCSSC(=Nc1ccccc1)OCC(C)C
T/C (dose: 50.0 mg/kg/injection, schedule: Q01DX009 (ip), vehicle: saline + Tween-80 + alcohol): 107 % of control | T/C (dose: 100.0 mg/kg/injection, schedule: Q01DX009 (ip), vehicle: saline + Tween-80 + alcohol): 106 % of control | T/C (dose: 200.0 mg/kg/injection, schedule: Q01DX009 (ip), vehicle: saline + Tween-80 + alcohol): 123 % of control

Cc1ccc(NC(=O)/C(Cl)=C(\Cl)C(=O)O)cc1C
T/C (dose: 3.75 mg/kg/injection, schedule: Q01DX005 (ip), vehicle: saline with Tween-80): 96 % of control | T/C (dose: 7.5 mg/kg/injection, schedule: Q01DX005 (ip), vehicle: saline with Tween-80): 102 % of control | T/C (dose: 15.0 mg/kg/injection, schedule: Q01DX005 (ip), vehicle: saline with Tween-80): 103 % of control and 110 % of control | T/C [4]: 104 % of control

CN(C)CCC1c2ccc(Cl)cc2CCc2cccnc21 (configuration not stated) (tested in a mixture with another compound)
T/C [15]: 107 % of control | T/C [16]: 99 % of control

CC(C)CC(NC(=O)C(CS)NC(=O)CN1C(=O)CCC1=O)C(N)=O (configuration not stated)
T/C (dose: 50.0 mg/kg/injection, schedule: Q01DX005 (ip), vehicle: Klucel (hydroxypropylcellulose) (HPC)): 105 % of control | T/C (dose: 100.0 mg/kg/injection, schedule: Q01DX005 (ip), vehicle: Klucel (hydroxypropylcellulose) (HPC)): 100 % of control | T/C (dose: 200.0 mg/kg/injection, schedule: Q01DX005 (ip), vehicle: Klucel (hydroxypropylcellulose) (HPC)): 101 % of control

CC(C)S(=O)c1ccccc1 (configuration not stated)
T/C (dose: 50.0 mg/kg/injection, schedule: Q01DX001 (ip), vehicle: saline with Tween-80): 103 % of control | T/C (dose: 100.0 mg/kg/injection, schedule: Q01DX001 (ip), vehicle: saline with Tween-80): 95 % of control | T/C (dose: 200.0 mg/kg/injection, schedule: Q01DX001 (ip), vehicle: saline with Tween-80): 95 % of control

CN(C)c1ccc2c(=O)cc[nH]c2c1
T/C [15]: 96 % of control | T/C [16]: 100 % of control | T/C (dose: 200.0 mg/kg/injection, schedule: Q01DX005 (ip), vehicle: saline): 100 % of control

COc1cc(C)c2c(=O)c3c(oc2c1)C(=O)c1c(O)c(OC)cc(O)c1C3=O
T/C (dose: 12.5 mg/kg/injection, schedule: Q01DX009 (ip), vehicle: saline with Tween-80): 115 % of control | T/C (dose: 25.0 mg/kg/injection, schedule: Q01DX009 (ip), vehicle: saline with Tween-80): 108 % of control | T/C [11]: 114 % of control | T/C [12]: 115 % of control | T/C [17]: 103 % of control

Cc1ccc(C(=O)NNC(O)C(F)(F)F)cc1 (configuration not stated)
T/C [13]: 97 % of control | T/C [14]: 102 % of control

O=c1nc(-c2ccccc2)c(-c2ccccc2)n[nH]1
T/C [11]: 100 % of control | T/C [12]: 100 % of control | T/C [17]: 100 % of control
